In PubChem BioAssay (NCI):
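Dose response: 5 concentrations. Exposure: 48 h. Format: 96-well plates. Endpoint: linear interpolation; highest concentration if not reached. TGI is the concentration that stops growth completely.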

What was measured:
Experiment in all cases: NCI-60 cell line screen, 48 h
[1] = test system: MDA-MB-231 breast
[2] = test system: TK-10 renal
[3] = test system: COLO 205 colon
[4] = test system: A498 renal
[5] = test system: SK-MEL-28 melanoma
[6] = test system: PC-3 prostate
[7] = test system: LOX IMVI melanoma
[8] = test system: EKVX NSCLC
[9] = test system: UO-31 renal
[10] = test system: SNB-19 CNS
[11] = test system: DU-145 prostate
[12] = test system: NCI-H226 lung
[13] = test system: ACHN renal
[14] = test system: MCF7 breast
[15] = test system: HOP-92 NSCLC
[16] = test system: SK-MEL-5 melanoma
[17] = test system: SK-MEL-2 melanoma
[18] = test system: HL-60(TB) leukemia
[19] = test system: SNB-75 CNS
[20] = test system: HS 578T breast
[21] = test system: RXF 393 renal
[22] = test system: OVCAR-3 ovarian
[23] = test system: A549 NSCLC
[24] = test system: SK-OV-3 ovarian
[25] = test system: NCI-H522 lung
[26] = test system: M14 melanoma
[27] = test system: SN12C renal
[28] = test system: SF-268 CNS
[29] = test system: 786-0 renal
[30] = test system: OVCAR-8 ovarian
[31] = test system: CAKI-1 renal
[32] = test system: K-562 leukemia
[33] = test system: OVCAR-5 ovarian
[34] = test system: HOP-62 NSCLC
[35] = test system: HCT-116 colon
[36] = test system: MDA-N
[37] = test system: NCI-H23 lung
[38] = test system: SF-539 CNS
[39] = test system: MALME-3M melanoma
[40] = test system: CCRF-CEM leukemia
[41] = test system: U251 CNS
[42] = test system: RPMI-8226 leukemia
[43] = test system: SW-620 colon
[44] = test system: HT29 colon
[45] = test system: KM12 colon
[46] = test system: NCI/ADR-RES ovarian
[47] = test system: IGROV1 ovarian
[48] = test system: UACC-257 melanoma
[49] = test system: UACC-62 melanoma
[50] = test system: SF-295 CNS
[51] = test system: T-47D breast
[52] = test system: MOLT-4 leukemia
[53] = test system: HCT-15 colon
[54] = test system: HCC-2998 colon
[55] = test system: NCI-H460 lung
[56] = test system: SR leukemia
[57] = test system: OVCAR-4 ovarian
[58] = test system: MDA-MB-435

For `N#Cc1nc(C(O)c2ccccc2)oc1N` (stereo not drawn), the TGI [1] was over 100 µM, the TGI [2] was over 100 µM and the TGI [3] was over 100 µM. For the same compound, the TGI [4] was over 100 µM, the TGI [5] was over 100 µM and the TGI [6] was over 100 µM. For the same compound, the TGI [7] was over 100 µM, the TGI [8] was over 100 µM and the TGI [9] was over 100 µM. The TGI [10] was over 100 µM, the TGI [11] was over 100 µM and the TGI [12] was over 100 µM. The TGI [13] was over 100 µM, the TGI [14] was over 100 µM and the TGI [15] was over 100 µM. The TGI [16] was over 100 µM, the TGI [17] was over 100 µM and the TGI [18] was over 100 µM. It also gave a TGI [19] of over 100 µM, a TGI [20] of over 100 µM and a TGI [21] of over 100 µM. The TGI [22] was over 100 µM, the TGI [23] was over 100 µM and the TGI [24] was over 100 µM. It also gave a TGI [25] of over 100 µM, a TGI [26] of over 100 µM and a TGI [27] of over 100 µM. The TGI [28] was over 100 µM, the TGI [29] was over 100 µM and the TGI [30] was over 100 µM. For the same compound, the TGI [31] was over 100 µM, the TGI [32] was over 100 µM and the TGI [33] was over 100 µM. The TGI [34] was over 100 µM, the TGI [35] was over 100 µM and the TGI [36] was over 100 µM. The TGI [37] was over 100 µM, the TGI [38] was over 100 µM and the TGI [39] was over 100 µM. For the same compound, the TGI [40] was over 100 µM, the TGI [41] was over 100 µM and the TGI [42] was over 100 µM. It also gave a TGI [43] of over 100 µM, a TGI [44] of over 100 µM and a TGI [45] of over 100 µM. For the same compound, the TGI [46] was over 100 µM, the TGI [47] was over 100 µM and the TGI [48] was over 100 µM. The TGI [49] was over 100 µM, the TGI [50] was over 100 µM and the TGI [51] was over 100 µM. For the same compound, the TGI [52] was over 100 µM.
In the case of `C/C(=N\NC(=O)c1ccncc1)c1cccc(F)c1`, the TGI [53] is reported as over 10 µM, the TGI [2] is reported as over 10 µM and the TGI [3] is reported as over 10 µM. It also gave a TGI [4] of over 10 µM, a TGI [5] of over 10 µM and a TGI [6] of over 10 µM. For the same compound, the TGI [7] was over 10 µM, the TGI [9] was over 10 µM and the TGI [10] was over 10 µM. For the same compound, the TGI [12] was over 10 µM, the TGI [13] was over 10 µM and the TGI [14] was over 10 µM. The TGI [15] was over 10 µM, the TGI [16] was over 10 µM and the TGI [54] was over 10 µM. For the same compound, the TGI [17] was over 10 µM, the TGI [18] was over 10 µM and the TGI [19] was over 10 µM. For the same compound, the TGI [21] was over 10 µM, the TGI [22] was over 10 µM and the TGI [23] was over 10 µM. The TGI [24] was over 10 µM, the TGI [26] was over 10 µM and the TGI [27] was over 10 µM. For the same compound, the TGI [28] was over 10 µM, the TGI [29] was over 10 µM and the TGI [30] was over 10 µM. The TGI [31] was over 10 µM, the TGI [32] was over 10 µM and the TGI [33] was over 10 µM. The TGI [34] was over 10 µM, the TGI [35] was over 10 µM and the TGI [36] was over 10 µM. It also gave a TGI [37] of over 10 µM, a TGI [38] of over 10 µM and a TGI [39] of over 10 µM. For the same compound, the TGI [40] was over 10 µM, the TGI [41] was over 10 µM and the TGI [42] was over 10 µM. The TGI [43] was over 10 µM, the TGI [55] was over 10 µM and the TGI [56] was over 10 µM. For the same compound, the TGI [45] was over 10 µM, the TGI [46] was over 10 µM and the TGI [47] was over 10 µM. For the same compound, the TGI [50] was over 10 µM, the TGI [51] was over 10 µM and the TGI [52] was over 10 µM.
Work on `CC(=O)c1c2c(cc3c1CC1(C3)Cc3cc4c(c(C(=O)O)c3C1)CCCC4)CCCC2` (stereo not drawn) (tested in a mixture with another compound) yielded a TGI [57] of over 100 µM, a TGI [53] of over 100 µM and a TGI [2] of over 100 µM. The TGI [3] was 68.4 µM, the TGI [58] was over 100 µM and the TGI [5] was over 100 µM. It also gave a TGI [6] of over 100 µM, a TGI [7] of over 100 µM and a TGI [8] of over 100 µM. For the same compound, the TGI [9] was 40.6 µM, the TGI [10] was over 100 µM and the TGI [11] was over 100 µM. The TGI [13] was over 100 µM, the TGI [14] was over 100 µM and the TGI [15] was 39.7 µM. The TGI [16] was 63.7 µM, the TGI [54] was 93.6 µM and the TGI [17] was 60.5 µM. For the same compound, the TGI [18] was 54.9 µM, the TGI [19] was over 100 µM and the TGI [20] was over 100 µM. For the same compound, the TGI [22] was 48.7 µM, the TGI [23] was over 100 µM and the TGI [24] was over 100 µM. It also gave a TGI [25] of over 100 µM, a TGI [26] of 96.2 µM and a TGI [27] of over 100 µM. The TGI [28] was over 100 µM, the TGI [29] was over 100 µM and the TGI [30] was over 100 µM. It also gave a TGI [31] of over 100 µM, a TGI [32] of over 100 µM and a TGI [33] of over 100 µM. The TGI [34] was 44.6 µM, the TGI [35] was 72.4 µM and the TGI [36] was over 100 µM. It also gave a TGI [37] of over 100 µM, a TGI [39] of over 100 µM and a TGI [40] of 94.6 µM. For the same compound, the TGI [41] was 72.6 µM, the TGI [42] was 89.3 µM and the TGI [43] was over 100 µM. The TGI [44] was over 100 µM, the TGI [55] was 53.6 µM and the TGI [56] was 53.8 µM. For the same compound, the TGI [45] was 59.7 µM, the TGI [46] was over 100 µM and the TGI [47] was over 100 µM. For the same compound, the TGI [48] was 74.3 µM, the TGI [49] was over 100 µM and the TGI [50] was over 100 µM. The TGI [51] was over 100 µM and the TGI [52] was 43.9 µM.
